Molecular target: T1, PD-1/PD-L1 interaction (Homo sapiens, UniProt Q9NZQ7)
T1 construct: Tag1 (undisclosed kit tag); purchased CisBio 63ADK000CPAPEG
Assay: PD-1/PD-L1 Homogenous Time-Resolved Fluorescence (HTRF) binding assay (CisBio kit)
Conditions: Biochemical PD1/PD-L1 inhibition
Method: PD-L1 Enzyme Assay: Homogenous Time-Resolved Fluorescence (HTRF) Binding Assay
All binding studies were performed using PD-1/PD-L1 Binding Assay Kit from CisBio (Catalog #63ADK000CPAPEG), according to the manufacturer's protocol. The interaction between Tag1-PD-1 and […] was detected by anti-Tag1-Eu^3+ (HTRF donor) and anti-Tag2-XL665 (HTRF acceptor). When the donor and acceptor antibodies were brought to close proximity due to PD-1 and PD-L1 binding, excitation of the donor antibody triggered fluorescent resonance energy transfer (FRET) towards the acceptor antibody, which in turn emitted specifically at 665 nm. This specific signal is positively proportional to PD-1/PD-L1 interaction. The compounds blocking PD-1/PD-L1 interaction will cause a reduction in HTRF signal. The necessary reagents were mixed in the following order: 2 μl compounds (or diluents buffer), 4 μl PD-L1 protein, 4 μl PD-1 protein. After an incubation of 15 minutes, 5 μl of anti-Tag1-Eu^3+ and 5 μl of anti-Tag2-XL665 were added. The plate was sealed and incubated at room temperature for 1 h. The fluorescence emission was read at two different wavelengths (665 nm and 620 nm) on a BMG PheraStar® multi-plate reader. Results were calculated from the 665 nm and 620 nm fluorescence signal and expressed in HTRF ratio=(665 nm/620 nm)×10^4.

T1 sequence (Q9NZQ7 19-238 limits assumed): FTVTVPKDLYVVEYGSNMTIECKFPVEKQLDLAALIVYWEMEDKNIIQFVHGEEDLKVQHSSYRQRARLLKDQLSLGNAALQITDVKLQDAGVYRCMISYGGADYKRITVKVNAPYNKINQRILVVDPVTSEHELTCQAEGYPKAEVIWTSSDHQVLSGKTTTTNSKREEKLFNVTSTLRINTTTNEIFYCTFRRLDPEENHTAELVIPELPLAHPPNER

Structure (SMILES) | IC50 [µM]
Cc1c(COc2cc(OCc3cncc(C#N)c3)c(CN3CC4(CC4)C[C@H]3C(=O)O)c3c2CCC3)cccc1-c1ccccc1 [Compound 52, (S)-5-((5-((5-cyanopyridin-3-yl)methoxy)-7-((2-methyl-[1,1′-biphenyl]-3-yl)methoxy)-2,3-dihydro-1H-inden-4-yl)methyl)-5-azaspiro[2.4]heptane-6-carboxylic acid] | < 0.1
CC(=O)NCCN(C)Cc1c(OCc2cccc(C#N)c2)cc(OCc2cccc(-c3ccccc3)c2C)c2c1CCC2 [Compound 53, N-(2-(((5-((3-cyanobenzyl)oxy)-7-((2-methyl-[1,1′-biphenyl]-3-yl)methoxy)-2,3-dihydro-1H-inden-4-yl)methyl)(methyl)amino)ethyl)acetamide] | < 0.1
CC(=O)NCCNCc1c(OCc2ccc(C#N)cc2)cc(OCc2cccc(-c3ccccc3)c2C)c2c1CCC2 [Compound 54, N-(2-(((5-((4-cyanobenzyl)oxy)-7-((2-methyl-[1,1′-biphenyl]-3-yl)methoxy)-2,3-dihydro-1H-inden-4-yl)methyl)amino)ethyl)acetamide] | 0.1 to 0.5
COc1cc(OCc2cccc(-c3ccccc3)c2C#N)c2c(c1CN1CCCC[C@H]1C(=O)O)CCC2 [Compound 55, (S)-1-((7-((2-cyano-[1,1′-biphenyl]-3-yl)methoxy)-5-methoxy-2,3-dihydro-1H-inden-4-yl)methyl)piperidine-2-carboxylic acid] | < 0.1
COc1cc(OCc2cccc(-c3ccccc3)c2C#N)c2c(c1CNCCNC(C)=O)CCC2 [Compound 56, N-(2-(((7-((2-cyano-[1,1′-biphenyl]-3-yl)methoxy)-5-methoxy-2,3-dihydro-1H-inden-4-yl)methyl)amino)ethyl)acetamide] | < 0.1
COc1cc(OCc2cccc(-c3ccccc3)c2C#N)c2c(c1CN1C[C@H](O)C[C@H]1C(=O)O)CCC2 [Compound 57, (2S,4R)-1-((7-((2-cyano-[1,1′-biphenyl]-3-yl)methoxy)-5-methoxy-2,3-dihydro-1H-inden-4-yl)methyl)-4-hydroxypyrrolidine-2-carboxylic acid] | < 0.1
COc1cc(OCc2cccc(-c3ccccc3)c2C#N)c2c(c1CNC(CO)(CO)CO)CCC2 [Compound 58, 3-(((7-(((1,3-dihydroxy-2-(hydroxymethyl)propan-2-yl)amino)methyl)-6-methoxy-2,3-dihydro-1H-inden-4-yl)oxy)methyl)-[1,1′-biphenyl]-2-carbonitrile] | < 0.1
COc1cc(OCc2cccc(-c3ccccc3)c2C#N)c2c(c1CN1CCOC[C@H]1C(=O)O)CCC2 [Compound 59, (S)-4-((7-((2-cyano-[1,1′-biphenyl]-3-yl)methoxy)-5-methoxy-2,3-dihydro-1H-inden-4-yl)methyl)morpholine-3-carboxylic acid] | < 0.1
COc1cc(OCc2cccc(-c3ccccc3)c2C#N)c2c(c1CNCC(=O)O)CCC2 [Compound 60, ((7-((2-cyano-[1,1′-biphenyl]-3-yl)methoxy)-5-methoxy-2,3-dihydro-1H-inden-4-yl)methyl)glycine] | < 0.1
COc1cc(OCc2cccc(-c3ccccc3)c2C#N)c2c(c1CN1CC3(CC3)C[C@H]1C(=O)O)CCC2 [Compound 61, (S)-5-((7-((2-cyano-[1,1′-biphenyl]-3-yl)methoxy)-5-methoxy-2,3-dihydro-1H-inden-4-yl)methyl)-5-azaspiro[2.4]heptane-6-carboxylic acid] | < 0.1
COc1cc(OCc2cccc(-c3ccccc3)c2C#N)c2c(c1CN1CCCCC1CC(=O)O)CCC2 (centres unmarked) [Compound 63, 2-(1-((7-((2-cyano-[1,1′-biphenyl]-3-yl)methoxy)-5-methoxy-2,3-dihydro-1H-inden-4-yl)methyl)piperidin-2-yl)acetic acid] | 0.1 to 0.5
COc1cc(OCc2cccc(-c3ccccc3)c2C#N)c2c(c1CN(C)CCN(C)C(C)=O)CCC2 [Compound 64, N-(2-(((7-((2-cyano-[1,1′-biphenyl]-3-yl)methoxy)-5-methoxy-2,3-dihydro-1H-inden-4-yl)methyl)(methyl)amino)ethyl)-N-methylacetamide] | 0.1 to 0.5
CC(=O)NCCNCc1c(OCCCCC(=O)O)cc(OCc2cccc(-c3ccccc3)c2C)c2c1CCC2 [Compound 65, 5-((4-(((2-acetamidoethyl)amino)methyl)-7-((2-methyl-[1,1′-biphenyl]-3-yl)methoxy)-2,3-dihydro-1H-inden-5-yl)oxy)pentanoic acid] | < 0.1
CC(=O)NCCNCc1c(OCCCCC(N)=O)cc(OCc2cccc(-c3ccccc3)c2C)c2c1CCC2 [Compound 66, 5-((4-(((2-acetamidoethyl)amino)methyl)-7-((2-methyl-[1,1′-biphenyl]-3-yl)methoxy)-2,3-dihydro-1H-inden-5-yl)oxy)pentanamide] | 0.1 to 0.5
Cc1c(COc2cc(OCCCCC(=O)O)c(CN3CCCC[C@H]3C(=O)O)c3c2CCC3)cccc1-c1ccccc1 [Compound 67, (S)-1-((5-(4-carboxybutoxy)-7-((2-methyl-[1,1′-biphenyl]-3-yl)methoxy)-2,3-dihydro-1H-inden-4-yl)methyl)piperidine-2-carboxylic acid] | < 0.1
Cc1c(COc2cc(OCCCCC(N)=O)c(CN3CCCC[C@H]3C(=O)O)c3c2CCC3)cccc1-c1ccccc1 [Compound 68, (S)-1-((5-((5-amino-5-oxopentyl)oxy)-7-((2-methyl-[1,1′-biphenyl]-3-yl)methoxy)-2,3-dihydro-1H-inden-4-yl)methyl)piperidine-2-carboxylic acid] | < 0.1
N#Cc1cncc(COc2cc(OCc3cccc(-c4ccccc4)c3C#N)c3c(c2CN2CCCC[C@H]2C(=O)O)CCC3)c1 [Compound 69, (S)-1-((7-((2-cyano-[1,1′-biphenyl]-3-yl)methoxy)-5-((5-cyanopyridin-3-yl)methoxy)-2,3-dihydro-1H-inden-4-yl)methyl)piperidine-2-carboxylic acid] | < 0.1
N#Cc1cncc(COc2cc(OCc3cccc(-c4ccccc4)c3C#N)c3c(c2CN2C[C@H](O)C[C@H]2C(=O)O)CCC3)c1 [Compound 70, (2S,4R)-1-((7-((2-cyano-[1,1′-biphenyl]-3-yl)methoxy)-5-((5-cyanopyridin-3-yl)methoxy)-2,3-dihydro-1H-inden-4-yl)methyl)-4-hydroxypyrrolidine-2-carboxylic acid] | < 0.1
N#Cc1cncc(COc2cc(OCc3cccc(-c4ccccc4)c3C#N)c3c(c2CN2CCC[C@@H](C(=O)O)C2)CCC3)c1 [Compound 71, (R)-1-((7-((2-cyano-[1,1′-biphenyl]-3-yl)methoxy)-5-((5-cyanopyridin-3-yl)methoxy)-2,3-dihydro-1H-inden-4-yl)methyl)piperidine-3-carboxylic acid] | < 0.1
COC(=O)C12CCC(NCc3c(OCc4cccc(C#N)c4)cc(OCc4cccc(-c5ccccc5)c4C)c4c3CCC4)(CC1)CC2 [Compound 73, methyl 4-(((5-((3-cyanobenzyl)oxy)-7-((2-methyl-[1,1′-biphenyl]-3-yl)methoxy)-2,3-dihydro-1H-inden-4-yl)methyl)amino)bicyclo[2.2.2]octane-1-carboxylate] | 0.1 to 0.5
Cc1c(COc2cc(OCc3cccc(C#N)c3)c(CNC34CCC(C(=O)O)(CC3)CC4)c3c2CCC3)cccc1-c1ccccc1 [Compound 74, 4-(((5-((3-cyanobenzyl)oxy)-7-((2-methyl-[1,1′-biphenyl]-3-yl)methoxy)-2,3-dihydro-1H-inden-4-yl)methyl)amino)bicyclo[2.2.2]octane-1-carboxylic acid] | < 0.1
COc1cc(OCc2cccc(-c3ccccc3)c2C(F)(F)F)c2c(c1CN1CCCC[C@H]1C(=O)O)CCC2 [Compound 75, (S)-1-((5-methoxy-7-((2-(trifluoromethyl)-[1,1′-biphenyl]-3-yl)methoxy)-2,3-dihydro-1H-inden-4-yl)methyl)piperidine-2-carboxylic acid] | > 0.5
COc1cc(OCc2cccc(-c3ccccc3)c2C(F)(F)F)c2c(c1CN1C[C@H](O)C[C@H]1C(=O)O)CCC2 [Compound 76, (2S,4R)-4-hydroxy-1-((5-methoxy-7-((2-(trifluoromethyl)-[1,1′-biphenyl]-3-yl)methoxy)-2,3-dihydro-1H-inden-4-yl)methyl)pyrrolidine-2-carboxylic acid] | > 0.5
Cc1c(COc2cc(OCC3CCCN(C)C3)c(CN3CCCC[C@H]3C(=O)O)c3c2CCC3)cccc1-c1ccccc1 (stereo partly drawn) [Compound 77, (2S)-1-((7-((2-methyl-[1,1′-biphenyl]-3-yl)methoxy)-5-((1-methylpiperidin-3-yl)methoxy)-2,3-dihydro-1H-inden-4-yl)methyl)piperidine-2-carboxylic acid] | < 0.1
N#Cc1c(COc2cc(OCCCCC(=O)O)c(CN3CCCC[C@H]3C(=O)O)c3c2CCC3)cccc1-c1ccccc1 [Compound 78, (S)-1-((5-(4-carboxybutoxy)-7-((2-cyano-[1,1′-biphenyl]-3-yl)methoxy)-2,3-dihydro-1H-inden-4-yl)methyl)piperidine-2-carboxylic acid] | < 0.1
CC(=O)NCCNCc1c(OCCCCC#N)cc(OCc2cccc(-c3ccccc3)c2C)c2c1CCC2 [Compound 79, N-(2-(((5-(4-cyanobutoxy)-7-((2-methyl-[1,1′-biphenyl]-3-yl)methoxy)-2,3-dihydro-1H-inden-4-yl)methyl)amino)ethyl)acetamide] | < 0.1
